These results are taken from US20230406849A1, “KRAS INHIBITORS FOR TREATMENT OF CANCERS” (TYLIGAND BIOSCIENCE (SHANGHAI) LIMITED, priority 2020, published 2023).

Molecules are shown by their SMILES. Like-named read-outs stand apart in the source and are kept apart here. Bounds are passed on as bounds.

In one data set the test system is H1373 (KRas-G12C). Briefly: KRas mutant cell proliferation, CellTiter-Glo (CTG). It is filed as cell-based. The following applies: Homo sapiens, NCI-H1373, lung cancer, 72 h; for inhibition at up to 10 µM: top concentration 10 μM, read-out: Maximum inhibition %. The text has this:
(§1) In this assay, the CellTiter-Glo (CTG) kit of Promega was used to evaluate the anti-proliferation activities of the compounds of the present disclosure on 12 KRas mutant tumor cell lines.
(§2) [Test materials]: RPMI1640 medium (Hyclone, Cat #SH30809.01); fetal bovine serum (FBS) (Gibco, Cat #10099-141); phosphate buffer PBS (Solarbio, Cat #P1020-500); DMSO (Sigma, Cat #D8418-1L); detection kit CTG (Promega, Cat #G7573); 96-well cell culture plate (Thermo, Cat #3100 Series); Vibrator (QILINBEIER, Cat #QB-9001); Incubator (Thermo Scientific, Cat #Model 3100 series); microscope (OLYMPUS, Cat #CKX41SF); multi-function microplate reader (BMG LABTECH, Cat #CLARIOstar® Plus); biological safety cabinet (Thermo, Cat #Model 1300 Series A2). All cell lines used in the following assay were purchased from KYinno Biotechnology Co., Ltd.
(§3) Each of the above cell lines was cultured in the indicated complete medium at 37° C., 5% CO2, and the cells in the logarithmic growth phase were harvested and counted using a platelet counter. The cell viability was detected by the trypan blue exclusion method to ensure that the cell viability was above 90%. Cell density was adjusted using complete medium, and then inoculated into 96-well cell culture plates, at 90 μL and a total of 3000 cells per well. The cells in the 96-well plate were cultured at 37° C. and 5% CO2.
(§4) The test compound solution in culture medium was prepared, the top concentration was 10 μM, serially diluted at a dilution factor of 3.16 to afford 9 concentrations. 10 μL of each diluted compound solution was transferred to the corresponding experimental well of the 96-well cell plate and each concentration was set three replicate wells. The cells in the 96-well plate that had been dosed were incubated at 37° C. and 5% CO2 for 72 hours, and then CTG analysis was performed.
(§5) The CTG reagent was melted, and the cell plate was moved to room temperature to equilibrate for 30 minutes. 100 μL of CTG solution was added to each well, and shaken on an orbital shaker for 5 minutes to fully lyse the cells. The plate was kept at room temperature for 20 minutes to stabilize the luminescence signal, and the luminescence value of each well was scanned and the data was collected. GraphPad Prism 7.0 software was used to analyze the data, and the nonlinear Sigmoidal regression was used to fit the data to obtain a dose-response curve. The relative and absolute IC50 values and the maximum inhibition rate were calculated according to conventional methods well known to those skilled in the art.
(§6) Inhibition rate %=[1−(LumDrug to be tested−LumCulture medium control)/(LUMCell control−LumCulture medium control)]×100%

Another data set concerns Kyse-410 (KRas-G12C). The description is as above. Format: cell-based. The settings on record: Homo sapiens, esophageal cancer, 72 h; for inhibition at up to 10 µM: top concentration 10 μM, read-out: Maximum inhibition %.
From the text: as §1, §2, §3, §4, §5, §6

For a further data set, the system named is SW837 (KRas-G12C). The description is as above. Format: cell-based. The settings on record: Homo sapiens, rectal cancer, 72 h; for inhibition at up to 10 µM: top concentration 10 μM, read-out: Maximum inhibition %.
From the text: as §1, §2, §3, §4, §5, §6

For the next data set, the system named is MIA-PaCa-2 (KRas-G12C). The data set is described as above. Format: cell-based. The following applies: Homo sapiens, pancreatic cancer, 72 h; for inhibition at up to 10 µM: top concentration 10 μM, read-out: Maximum inhibition %.
From the text: as §1, §2, §3, §4, §5, §6

For the next data set, the system named is HCT116 (KRas-G13D). Described as above. The settings on record: Homo sapiens, HCT-116, colorectal cancer, 72 h; for inhibition at up to 10 µM: top concentration 10 μM, read-out: Maximum inhibition %. It is filed as cell-based.
From the text: as §1, §2, §3, §4, §5, §6

Another data set deals with H23 (KRas-G12C). The data set is described as above. The settings on record: lung cancer, 72 h; for inhibition at up to 10 µM: top concentration 10 μM, read-out: Maximum inhibition %. It is filed as cell-based.
From the text: as §1, §2, §3, §4, §5, §6

Data set [1] is described as follows: Cassette pharmacokinetic experiment in rats (IV). The following applies: rat, plasma, 1 mg/kg, male SD rats, tail vein IV, 1 mg/mL each compound at 1 mL/kg. Format: in vivo. The text has this: 2.1 Pharmacokinetic Properties of Some Compounds of the Present Disclosure Evaluated by Cassette Pharmacokinetic Experiments in Rats.
[Test materials]: Male SD rats, age: 6-8 weeks, body weight 220-250 g, purchased from Zhaoyan (Suzhou) New Drug Research Center Co., Ltd.; Tolbutamide (Aladdin, Cat #H1401054); Sulfobutyl-(Captisol, Shandong Binzhou Zhiyuan Biological Technology Co., Ltd, Cat #20191013); Propylene glycol (15)-stearate (Solutol, Meilun Bio, Cat #50206A); DMSO (Vetec Company, Cat #WXBD0293V); acetonitrile (Sigma-Aldrich, Cat #WXBD1744V); Methanol (Sigma-Aldrich, Cat #WXBD2831V).
[Experimental procedure]: The compound combination was prepared in a solvent of 5% DMSO/10% Solutol/85% (20% Captisol), and the final concentration of each compound was 1 mg/mL. The SD rats were treated with the compound preparation in 1 mL/kg by tail vein IV injection, and blood samples were collected at the time points of 5 min, 15 min, 30 min, 1 h, 2 h, 4 h, 8 h, and 24 h via external jugular vein puncture, centrifuged at low temperature for 20 minutes to collect plasma samples, which were stored at −80° C. until analysis.
[Sample analysis]: Establishing LC-MS/MS compound analysis method
Standard curve preparation: 20 μL of lmg/mL DMSO stock solution for each compound was aspirated and transferred to […] of 50% methanol working solution, and the resulting solution was serially diluted to obtain a standard curve working solution with concentrations of 20000, 10000, 5000, 1000, 500, 100, 50, 20 and […]. Then 5 µL of this standard curve working solution was mixed with 45 μL rat blank plasma to give a standard curve with concentrations of 2000, 1000, 500, 100, 50, 10, 2 and 1 ng/mL for quantification of unknown samples.
Sample pretreatment: 50 μL of unknown plasma sample or standard curve sample was mixed with 250 μL of acetonitrile containing internal standard as a precipitant. The plasma protein was precipitated, extracted for test compounds, and centrifuged at low temperature for 20 minutes. The supernatant was taken, mixed with 0.1% formic acid aqueous solution, and 5 μL of the resulting solution was aspirated for blood concentration analysis.
[Data processing]: A standard curve was plotted using mass spectrometry software, to quantify unknown samples, and pharmacokinetic parameters are calculated by Winnonlin 8.2 using the drug concentration of unknown samples at each time point.

As for `C=CC(=O)N1CCN(c2c(C#N)cnc3c(F)c(-c4ccc(F)c5sc(N)nc45)c(Cl)cc23)CC1` [Example 9, 4-(4-Acryloylpiperazin-1-yl)-7-(2-amino-7-fluorobenzo[d]thiazol-4-yl)-6-chloro-8-fluoroquinoline-3-carbonitrile], the IC50 in the data set with H1373 (KRas-G12C) (read-out: Absolute IC50) is 1510 nM; in the data set on H1373 (KRas-G12C) (read-out: Relative IC50), 1640 nM; in the data set on Kyse-410 (KRas-G12C) (read-out: Absolute IC50), 1570 nM; in the data set on Kyse-410 (KRas-G12C) (read-out: Relative IC50), 2040 nM; with SW837 (KRas-G12C) (read-out: Absolute IC50), 431 nM; in the data set on SW837 (KRas-G12C) (read-out: Relative IC50), 17 nM. Also, the IC50 came out at 81 nM with MIA-PaCa-2 (KRas-G12C) (read-out: Absolute IC50); 36 nM in the data set with MIA-PaCa-2 (KRas-G12C) (read-out: Relative IC50); 7060 nM in the data set with HCT116 (KRas-G13D) (read-out: Absolute IC50); 5890 nM in the data set with HCT116 (KRas-G13D) (read-out: Relative IC50); 273 nM with H23 (KRas-G12C) (read-out: Absolute IC50); 205 nM in the data set with H23 (KRas-G12C) (read-out: Relative IC50). Moreover, the inhibition at up to 10 µM with H1373 (KRas-G12C) came out at 80.3%; in the data set on Kyse-410 (KRas-G12C) it was 77.5%; in the data set on SW837 (KRas-G12C) it was 60%; in the data set on MIA-PaCa-2 (KRas-G12C) it was 85.9%; in the data set with HCT116 (KRas-G13D), 62%; in the data set on H23 (KRas-G12C), 94.4%. Moreover, the AUC(0-t) in data set [1] is 1050 ng·h/mL. Further, in data set [1], the clearance turned out to be 15.8 mL/min/kg. In addition, in data set [1], the half-life is 40.2 min.

Turning to `C=CC(=O)N1CCN(c2ncnc3c(F)c(-c4ccc(F)c5sc(N)nc45)c(Cl)cc23)CC1` [Ref. Comp. A, reference compound], the IC50 in the data set with H1373 (KRas-G12C) (read-out: Absolute IC50) was 3240 nM; in the data set with H1373 (KRas-G12C) (read-out: Relative IC50), 1920 nM; in the data set on Kyse-410 (KRas-G12C) (read-out: Absolute IC50), 7240 nM; in the data set on Kyse-410 (KRas-G12C) (read-out: Relative IC50), 5630 nM; in the data set on SW837 (KRas-G12C) (read-out: Absolute IC50) it was > 10000 nM; with SW837 (KRas-G12C) (read-out: Relative IC50) it was 18 nM. Besides, the 50% inhibitory concentration (IC50) in the data set on MIA-PaCa-2 (KRas-G12C) (read-out: Absolute IC50) was 92 nM; in the data set with MIA-PaCa-2 (KRas-G12C) (read-out: Relative IC50), 41 nM; with HCT116 (KRas-G13D) (read-out: Absolute IC50), > 10000 nM; with HCT116 (KRas-G13D) (read-out: Relative IC50), > 10000 nM; in the data set on H23 (KRas-G12C) (read-out: Absolute IC50) it was 521 nM; in the data set on H23 (KRas-G12C) (read-out: Relative IC50), 320 nM. In addition, the inhibition at up to 10 µM in the data set on H1373 (KRas-G12C) was 65.2%; with Kyse-410 (KRas-G12C), 58.3%; in the data set on SW837 (KRas-G12C), 48.6%; in the data set on MIA-PaCa-2 (KRas-G12C), 74.5%; in the data set with HCT116 (KRas-G13D), 29.3%; in the data set with H23 (KRas-G12C), 85.9%. Moreover, the AUC(0-t) in data set [1] came to 623 ng·h/mL. Further, in data set [1], the clearance was 27.1 mL/min/kg. Also, the half-life in data set [1] is 60 min.

Regarding `C=CC(=O)N1CCN(c2nc(=O)n(-c3c(C)ccnc3C(C)C)c3nc(-c4c(O)cccc4F)c(F)cc23)[C@@H](C)C1` (atropisomer, axis not shown) [AMG510, reference compound], in data set [1], the exposure AUC(0-t) came out at 231 ng·h/mL, the clearance came out at 71.8 mL/min/kg and the half-life is 29.4 min.
